This is an account of results in PMC2822479 (American Journal of Physiology - Endocrinology and …, 2009).

The test concerns the target human KISS1R (Homo sapiens, UniProt Q969F8). Briefly: Receptor binding assay, competition against [125I]KP-54 in CHO-KISS1R membranes. To be noted: SEM.

Molecules are shown by their SMILES. Where a SMILES comes first, the peptide text is derived from it.

Chain of human KISS1R (Q969F8 whole entry): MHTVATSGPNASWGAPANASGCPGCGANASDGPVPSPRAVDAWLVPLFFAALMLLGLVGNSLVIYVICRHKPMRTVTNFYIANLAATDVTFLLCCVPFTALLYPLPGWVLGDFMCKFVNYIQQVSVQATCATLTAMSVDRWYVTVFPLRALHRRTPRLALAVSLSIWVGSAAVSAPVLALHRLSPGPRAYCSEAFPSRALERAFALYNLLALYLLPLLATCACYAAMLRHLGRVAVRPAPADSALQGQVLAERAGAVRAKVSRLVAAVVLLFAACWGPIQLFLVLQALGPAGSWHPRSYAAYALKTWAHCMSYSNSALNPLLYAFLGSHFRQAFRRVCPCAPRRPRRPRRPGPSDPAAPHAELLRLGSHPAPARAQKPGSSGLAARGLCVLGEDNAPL

What is called IC50 is the point on the concentration scale where inhibition reaches its midpoint. High values mean weaker potency, low ones greater potency. `CC(C)C[C@H](NC(=O)CNC(=O)[C@H](Cc1ccccc1)NC(=O)[C@H](CO)NC(=O)[C@H](CC(N)=O)NC(=O)[C@H](Cc1c[nH]c2ccccc12)NC(=O)[C@H](CC(N)=O)NC(=O)[C@H](C)N)C(=O)N[C@@H](CCCNC(=N)N)C(=O)N[C@@H](Cc1ccccc1)C(N)=O` [ANA1] (H-ANWNSFGLRF-NH2) came in with an IC50 of 0.0232 µM. Compound `CC(C)C[C@H](NC(=O)CNC(=O)[C@H](Cc1ccccc1)NC(=O)[C@H](CO)NC(=O)[C@H](CC(N)=O)NC(=O)[C@H](Cc1c[nH]c2ccccc12)NC(=O)[C@H](C)NC(=O)[C@@H](N)Cc1ccc(O)cc1)C(=O)N[C@@H](CCCNC(=N)N)C(=O)N[C@@H](Cc1ccccc1)C(N)=O` [ANA2] (H-YAWNSFGLRF-NH2) yielded an IC50 of 0.145 µM.

For the compound `CC(C)C[C@H](NC(=O)CNC(=O)[C@H](Cc1ccccc1)NC(=O)[C@H](CO)NC(=O)[C@H](CC(N)=O)NC(=O)[C@H](C)NC(=O)[C@H](CC(N)=O)NC(=O)[C@@H](N)Cc1ccc(O)cc1)C(=O)N[C@@H](CCCNC(=N)N)C(=O)N[C@@H](Cc1ccccc1)C(N)=O` [ANA3] (H-YNANSFGLRF-NH2), the IC50 stood at 0.0027 µM. `CC(C)C[C@H](NC(=O)CNC(=O)[C@H](Cc1ccccc1)NC(=O)[C@H](CO)NC(=O)[C@H](C)NC(=O)[C@H](Cc1c[nH]c2ccccc12)NC(=O)[C@H](CC(N)=O)NC(=O)[C@@H](N)Cc1ccc(O)cc1)C(=O)N[C@@H](CCCNC(=N)N)C(=O)N[C@@H](Cc1ccccc1)C(N)=O` [ANA4] (H-YNWASFGLRF-NH2) showed an IC50 of 0.0435 µM. In turn, `CC(C)C[C@H](NC(=O)CNC(=O)[C@H](Cc1ccccc1)NC(=O)[C@H](C)NC(=O)[C@H](CC(N)=O)NC(=O)[C@H](Cc1c[nH]c2ccccc12)NC(=O)[C@H](CC(N)=O)NC(=O)[C@@H](N)Cc1ccc(O)cc1)C(=O)N[C@@H](CCCNC(=N)N)C(=O)N[C@@H](Cc1ccccc1)C(N)=O` [ANA5] (H-YNWNAFGLRF-NH2) returned an IC50 of 0.0008 µM.

`CC(C)C[C@H](NC(=O)CNC(=O)[C@H](C)NC(=O)[C@H](CO)NC(=O)[C@H](CC(N)=O)NC(=O)[C@H](Cc1c[nH]c2ccccc12)NC(=O)[C@H](CC(N)=O)NC(=O)[C@@H](N)Cc1ccc(O)cc1)C(=O)N[C@@H](CCCNC(=N)N)C(=O)N[C@@H](Cc1ccccc1)C(N)=O` [ANA6] (H-YNWNSAGLRF-NH2) registered an IC50 of 0.11 µM. Compound `CC(C)C[C@H](NC(=O)[C@H](C)NC(=O)[C@H](Cc1ccccc1)NC(=O)[C@H](CO)NC(=O)[C@H](CC(N)=O)NC(=O)[C@H](Cc1c[nH]c2ccccc12)NC(=O)[C@H](CC(N)=O)NC(=O)[C@@H](N)Cc1ccc(O)cc1)C(=O)N[C@@H](CCCNC(=N)N)C(=O)N[C@@H](Cc1ccccc1)C(N)=O` [ANA7] (H-YNWNSFALRF-NH2) registered an IC50 of 0.0046 µM. For `C[C@H](NC(=O)CNC(=O)[C@H](Cc1ccccc1)NC(=O)[C@H](CO)NC(=O)[C@H](CC(N)=O)NC(=O)[C@H](Cc1c[nH]c2ccccc12)NC(=O)[C@H](CC(N)=O)NC(=O)[C@@H](N)Cc1ccc(O)cc1)C(=O)N[C@@H](CCCNC(=N)N)C(=O)N[C@@H](Cc1ccccc1)C(N)=O` [ANA8] (H-YNWNSFGARF-NH2), the IC50 came out at 0.0774 µM. Regarding `CC(C)C[C@H](NC(=O)CNC(=O)[C@H](Cc1ccccc1)NC(=O)[C@H](CO)NC(=O)[C@H](CC(N)=O)NC(=O)[C@H](Cc1c[nH]c2ccccc12)NC(=O)[C@H](CC(N)=O)NC(=O)[C@@H](N)Cc1ccc(O)cc1)C(=O)N[C@@H](C)C(=O)N[C@@H](Cc1ccccc1)C(N)=O` [ANA9] (H-YNWNSFGLAF-NH2), the IC50 was found to be 0.0423 µM. For `CC(C)C[C@H](NC(=O)CNC(=O)[C@H](Cc1ccccc1)NC(=O)[C@H](CO)NC(=O)[C@H](CC(N)=O)NC(=O)[C@H](Cc1c[nH]c2ccccc12)NC(=O)[C@H](CC(N)=O)NC(=O)[C@@H](N)Cc1ccccc1)C(=O)N[C@@H](CCCNC(=N)N)C(=O)N[C@@H](Cc1ccccc1)C(N)=O` [ANA11] (H-FNWNSFGLRF-NH2) the value was 0.0035 µM; for `CC(C)C[C@H](NC(=O)CNC(=O)[C@H](Cc1ccccc1)NC(=O)[C@H](CO)NC(=O)[C@H](CC(N)=O)NC(=O)[C@H](Cc1c[nH]c2ccccc12)NC(=O)[C@H](CC(=O)O)NC(=O)[C@@H](N)Cc1ccc(O)cc1)C(=O)N[C@@H](CCCNC(=N)N)C(=O)N[C@@H](Cc1ccccc1)C(N)=O` [ANA12] (H-YDWNSFGLRF-NH2), 0.0291 µM; for `CC(C)C[C@H](NC(=O)CNC(=O)[C@H](Cc1ccccc1)NC(=O)[C@H](CO)NC(=O)[C@H](CC(=O)O)NC(=O)[C@H](Cc1c[nH]c2ccccc12)NC(=O)[C@H](CC(N)=O)NC(=O)[C@@H](N)Cc1ccc(O)cc1)C(=O)N[C@@H](CCCNC(=N)N)C(=O)N[C@@H](Cc1ccccc1)C(N)=O` [ANA13] (H-YNWDSFGLRF-NH2), 0.14 µM. For `CC(C)C[C@H](NC(=O)CNC(=O)[C@H](Cc1ccccc1)NC(=O)[C@@H](NC(=O)[C@H](CC(N)=O)NC(=O)[C@H](Cc1c[nH]c2ccccc12)NC(=O)[C@H](CC(N)=O)NC(=O)[C@@H](N)Cc1ccc(O)cc1)[C@@H](C)O)C(=O)N[C@@H](CCCNC(=N)N)C(=O)N[C@@H](Cc1ccccc1)C(N)=O` [ANA14] (H-YNWNTFGLRF-NH2) the value was 0.0023 µM; for `CC(C)C[C@H](NC(=O)CNC(=O)[C@H](Cc1ccc(O)cc1)NC(=O)[C@H](CO)NC(=O)[C@H](CC(N)=O)NC(=O)[C@H](Cc1c[nH]c2ccccc12)NC(=O)[C@H](CC(N)=O)NC(=O)[C@@H](N)Cc1ccc(O)cc1)C(=O)N[C@@H](CCCNC(=N)N)C(=O)N[C@@H](Cc1ccccc1)C(N)=O` [ANA15] (H-YNWNSYGLRF-NH2), 0.0875 µM; for `CC[C@H](C)[C@H](NC(=O)CNC(=O)[C@H](Cc1ccccc1)NC(=O)[C@H](CO)NC(=O)[C@H](CC(N)=O)NC(=O)[C@H](Cc1c[nH]c2ccccc12)NC(=O)[C@H](CC(N)=O)NC(=O)[C@@H](N)Cc1ccc(O)cc1)C(=O)N[C@@H](CCCNC(=N)N)C(=O)N[C@@H](Cc1ccccc1)C(N)=O` [ANA16] (H-YNWNSFGIRF-NH2), 0.0399 µM.

The compound `CC(C)C[C@H](NC(=O)CNC(=O)[C@H](Cc1ccccc1)NC(=O)[C@H](CO)NC(=O)[C@H](CC(N)=O)NC(=O)[C@H](Cc1c[nH]c2ccccc12)NC(=O)[C@H](CC(N)=O)NC(=O)[C@@H](N)Cc1ccc(O)cc1)C(=O)N[C@@H](CCCCN)C(=O)N[C@@H](Cc1ccccc1)C(N)=O` [ANA17] (H-YNWNSFGLKF-NH2) yielded an IC50 of 0.0098 µM.

As for `CC(C)C[C@H](NC(=O)CNC(=O)[C@H](Cc1ccccc1)NC(=O)[C@H](CO)NC(=O)[C@H](CC(N)=O)NC(=O)[C@H](Cc1c[nH]c2ccccc12)NC(=O)[C@H](CC(N)=O)NC(=O)[C@@H](N)Cc1ccc(O)cc1)C(=O)N[C@@H](CCCNC(=N)N)C(=O)N[C@@H](Cc1c[nH]cn1)C(N)=O` [ANA18] (H-YNWNSFGLRH-NH2), the IC50 stood at 0.378 µM.

In turn, `CC(C)C[C@H](NC(=O)CNC(=O)[C@H](Cc1ccccc1)NC(=O)[C@H](CO)NC(=O)[C@H](CC(N)=O)NC(=O)[C@H](Cc1c[nH]c2ccccc12)NC(=O)[C@H](CC(N)=O)NC(=O)[C@H](N)Cc1ccc(O)cc1)C(=O)N[C@@H](CCCNC(=N)N)C(=O)N[C@@H](Cc1ccccc1)C(N)=O` [ANA19] had an IC50 of 0.0036 µM.

On to `CC(C)C[C@H](NC(=O)CNC(=O)[C@@H](Cc1ccccc1)NC(=O)[C@H](CO)NC(=O)[C@H](CC(N)=O)NC(=O)[C@H](Cc1c[nH]c2ccccc12)NC(=O)[C@H](CC(N)=O)NC(=O)[C@@H](N)Cc1ccc(O)cc1)C(=O)N[C@@H](CCCNC(=N)N)C(=O)N[C@@H](Cc1ccccc1)C(N)=O` [ANA20], for which the IC50 amounted to 0.253 µM. With `CC(C)C[C@H](NC(=O)CNC(=O)[C@H](Cc1ccccc1)NC(=O)[C@H](CO)NC(=O)[C@H](CC(N)=O)NC(=O)[C@H](Cc1c[nH]c2ccccc12)NC(=O)[C@H](CC(N)=O)NC(=O)[C@@H](N)Cc1ccc(O)cc1)C(=O)N[C@@H](CCCNC(=N)N)C(=O)N[C@H](Cc1ccccc1)C(N)=O` [ANA21] the figure was 0.447 µM; with `CC(C)C[C@H](NC(=O)CNC(=O)[C@H](Cc1ccccc1)NC(=O)[C@H](CO)NC(=O)[C@H](CC(N)=O)NC(=O)[C@H](Cc1c[nH]c2ccccc12)NC(=O)[C@H](CC(N)=O)NC(=O)[C@@H](N)Cc1ccc(O)cc1)C(=O)N[C@@H](CCCNC(=N)N)C(=O)N[C@@H](Cc1ccccc1)C(N)=O` [KP-10, kisspeptin-10, reference compound], 0.001 µM.
